Measurements taken from patent US20210369812A1, “OSTEOINDUCTIVE PEPTIDES, COMPOSITIONS, IMPLANTS, AND METHODS OF USE” (The Board of Regents of the University of Oklahoma, priority 2018, published 2021).

Legend:
hMSCs = assay: Immunofluorescence of osteoblast marker proteins; type: cell-based, human; settings: hMSCs on phage films, 26 days, basal media
From the text: OPN was detected with the primary antibody for OPN (RbpAB to osteopontin ab8448 from Abcam). The secondary antibody used was Goat Anti-Rabbit IgG H&L (Alexa Fluor 555) (ab150078) from Abcam (red). OCN was detected with the primary antibody for OCN [OC4-30] (ab13418) from Abcam). The secondary antibody used was Goat Anti-Mouse IgG H&L (Dylight 650) preadsorbed from abcam ab96882 (red). COL was detected using a primary antibody for COL (RbpAb to collagen 1 ab34710). The secondary antibody used was Goat Anti-Rabbit IgG H&L (Alexa Fluor 555) (ab150078) from abcam (red). Cell nuclei were stained by DAPI (blue) for all samples, and actin was stained by phalloidin (green).
This procedure can be scaled for any size well plates or petri dish, but the volumes included are for 96-well tissue culture plates. […]
After culturing hMSCs on phage films for 26 days, the cells were fixed with 4% paraformaldehyde (10 min) and permeabilized with 0.2% Triton X-100 (2 min) at room temperature. […] The osteogenic protein markers osteopontin (OPN), osteocalcin (OCN), and collagen type 1A (COL) were detected through immunofluorescence. OPN was detected with the primary antibody for OPN (RbpAB to osteopontin ab8448 from Abcam). […] OCN was detected with the primary antibody for OCN [OC4-30] […] COL was detected using a primary antibody for COL (RbpAb to collagen 1 ab34710). […]

[1] = tested on: rat radial bone defect model; assay: Histological staining (HE, Von Kossa) of implanted scaffolds; type: in vivo; settings: 4-week implants
From the text: After 4 weeks and 12 weeks, animals (N=5) were euthanized by CO2 asphyxiation. The sections of the arms containing the implant (at the radius bone) were then cut way from the rest of the animal using bone cutters. The 4-week implant samples were fixed in 10% (w/v) neutral formalin solution for 4 days. The 12-week samples were fixed in 4% paraformaldehyde for 4 days. Paraformaldehyde was used as it can produce better CD31 vascularization stains relative to fixing with formalin. The samples were then placed in a solution of 70% ethanol to 30% water (v/v).
The tissue sections were deparaffinized and hydrated with distilled water. Hematoxylin was applied to the sample with enough volume to cover the tissue section followed by incubation for 5 min. The mounted tissue slide was then rinsed in 2 changes of distilled water (sections were allowed to soak for 15 sec on each exchange of water). Enough Bluing Reagent was then added to the tissue section to completely cover it followed by incubation for 10-15 sec. The slides were then rinsed again in 2 changes of distilled water allowing 15 sec of contact with the water each time. The slides were then dipped in 100% ethanol for 10 sec. The excess ethanol was blotted off. Enough Eosin Y Solution was then added to completely cover the tissue section followed by incubation for 2-3 min. The slides were then rinsed in 100% ethanol for 10 sec. […]

Sequence: VHVPLHRGAVSA (Completely synthesized in the lab - Ph.D.-12 Phage Display Peptide Library Kit (New England Biolabs))
- Osteocalcin protein expression (immunofluorescence) (hMSCs): slightly greater osteocalcin production
- Osteopontin protein expression (immunofluorescence) (hMSCs): qualitatively higher level of osteopontin protein expression than the other groups and a higher expression than the positive control
- New bone tissue / calcium deposits (Von Kossa stain) [1]: New bone tissue was observed to be best
